Among the data in ChEMBL document CHEMBL4420075, “Seriniquinones, melanoma-specific anticancer agents” (2016) are Activity values, retold here.

The target in this assay is T1, Dermcidin (Homo sapiens) (UniProt P81605).
T1 sequence (whole entry): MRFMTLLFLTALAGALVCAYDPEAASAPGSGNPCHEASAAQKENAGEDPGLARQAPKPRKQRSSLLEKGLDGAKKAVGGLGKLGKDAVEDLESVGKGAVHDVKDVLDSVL
Put plainly: Covalent binding affinity to DCD-1L (unknown origin) at 50 uM incubated for 24 hrs by denatured SDS-PAGE gel electrophoresis.

Active and inactive are the calls of the source. The calls are words filed in the database; no cut-off is given here.

Take `O=C(O)CCc1ccc2c(=O)c3c(sc4c(=O)c5ccccc5c(=O)c43)c(=O)c2c1`: the outcome was Active.
Next, `CC(C)=CCCc1ccc2c(=O)c3c(sc4c(=O)c5ccccc5c(=O)c43)c(=O)c2c1`: “Active”.
